Assay [1] has as its system T1, General amino-acid permease GAP1 (Saccharomyces cerevisiae), P19145 [V381C].
T1 sequence (whole entry): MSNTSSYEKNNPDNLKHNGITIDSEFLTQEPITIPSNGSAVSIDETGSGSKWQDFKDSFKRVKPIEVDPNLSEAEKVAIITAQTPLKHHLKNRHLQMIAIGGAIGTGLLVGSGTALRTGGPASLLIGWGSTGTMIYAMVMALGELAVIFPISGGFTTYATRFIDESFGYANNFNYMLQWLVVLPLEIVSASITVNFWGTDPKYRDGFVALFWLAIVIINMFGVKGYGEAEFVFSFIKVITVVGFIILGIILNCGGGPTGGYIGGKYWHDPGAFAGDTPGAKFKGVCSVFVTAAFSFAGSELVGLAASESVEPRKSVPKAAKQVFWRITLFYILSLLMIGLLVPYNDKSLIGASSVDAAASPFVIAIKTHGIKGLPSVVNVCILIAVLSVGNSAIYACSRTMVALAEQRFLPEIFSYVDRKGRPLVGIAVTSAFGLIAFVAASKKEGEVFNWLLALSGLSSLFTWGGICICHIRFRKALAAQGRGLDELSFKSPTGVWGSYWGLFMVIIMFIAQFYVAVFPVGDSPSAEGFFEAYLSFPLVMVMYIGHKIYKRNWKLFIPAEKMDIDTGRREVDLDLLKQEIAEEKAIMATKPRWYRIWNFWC
The experiment in a line: Induction of yest Gap1 V381C mutant-mediated trehalose activation at 10 mM.

Assay [2] deals with T2, General amino-acid permease GAP1 (Saccharomyces cerevisiae) (UniProt P19145).
T2 sequence (whole entry): T1 sequence (whole entry) with C381V
Kind of assay: Induction of nitrogen-starved wild type sigma1278b yeast Gap1-mediated amino acid uptake at 2 mM in presence of 10 mM MTSEA treated before compound addition.

The test system of assay [3] is General amino-acid permease GAP1 (Saccharomyces cerevisiae), P19145 [S388C]. Kind of assay: Induction of yeast Gap1 S388C mutant-mediated trehalose activation at 2 mM in presence of 10 mM MTSEA treated before compound addition.
For assay [4], the system named is T3, General amino-acid permease GAP1 (Saccharomyces cerevisiae), P19145 [G390C].
T3 sequence (whole entry): T1 sequence (whole entry) with C381V, G390C
The experiment in a line: Induction of yeast Gap1 G390C mutant-mediated trehalose activation at 10 mM.

For assay [5], the system named is T4, General amino-acid permease GAP1 (Saccharomyces cerevisiae), P19145 [A396C].
T4 sequence (whole entry): T1 sequence (whole entry) with C381V, A396C
Kind of assay: Induction of yeast Gap1 A396C mutant-mediated trehalose activation at 10 mM.

The test system of assay [6] is General amino-acid permease GAP1 (Saccharomyces cerevisiae), P19145 [V402C]. Kind of assay: Inhibition of yeast Gap1 V402C mutant-mediated amino acid uptake at 10 mM.

Residue numbers refer to the chain shown, from its start. Active and inactive are the calls of the source. The calls are words filed in the database; no cut-off is given here.

Chain of General amino-acid permease GAP1 (Saccharomyces cerevisiae), P19145 [S388C] (P19145 whole entry S388C): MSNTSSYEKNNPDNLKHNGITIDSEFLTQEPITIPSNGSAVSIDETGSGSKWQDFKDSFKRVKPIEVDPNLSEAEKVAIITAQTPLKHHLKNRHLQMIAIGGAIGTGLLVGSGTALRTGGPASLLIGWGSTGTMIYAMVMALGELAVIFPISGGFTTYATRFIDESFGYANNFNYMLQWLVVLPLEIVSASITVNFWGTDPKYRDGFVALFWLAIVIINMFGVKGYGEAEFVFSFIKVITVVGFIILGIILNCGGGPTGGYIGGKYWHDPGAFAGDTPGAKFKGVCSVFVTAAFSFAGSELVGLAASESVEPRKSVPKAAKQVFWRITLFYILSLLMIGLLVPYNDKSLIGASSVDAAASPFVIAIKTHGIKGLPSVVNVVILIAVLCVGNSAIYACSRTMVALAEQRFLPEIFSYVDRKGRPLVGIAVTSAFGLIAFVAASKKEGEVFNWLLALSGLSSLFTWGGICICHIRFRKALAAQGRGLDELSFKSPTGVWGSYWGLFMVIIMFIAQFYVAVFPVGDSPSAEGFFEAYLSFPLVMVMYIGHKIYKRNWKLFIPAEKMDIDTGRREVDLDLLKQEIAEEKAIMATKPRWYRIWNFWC
Chain of General amino-acid permease GAP1 (Saccharomyces cerevisiae), P19145 [V402C] (P19145 whole entry V402C): as the sequence (P19145 whole entry S388C) above, with C388S, V402C counted along it

For `NC(=O)NCCC[C@H](N)C(=O)O`, the result in assay [1], in assay [4] and in assay [5] was inactive. In addition, the inhibition entry in assay [2] and in assay [6] was “Active” in each case. Moreover, the inhibition result in assay [3] is “inactive”.

Values taken from ChEMBL document CHEMBL1221220, “Transport and signaling via the amino acid binding site of the yeast Gap1 amino acid transceptor” (Nat Chem Biol, 2009).
